Tests used:
Assay in all cases: relative viability (nuclei count vs DMSO), 5 days (fraction); higher = more cells survive
[1] = compound: CS(=O)(=O)c1ccc(-c2cnc(N)c(C(=O)Nc3ccccc3)n2)cc1 [VE-821] + Cc1nc(NC(=O)N2CCC[C@H]2C(N)=O)sc1-c1ccnc(C(C)(C)C(F)(F)F)c1 [Alpelisib] (partner 2 µM)
In short: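 The day after seeding in 1536-well plates, lung cancer cell lines were treated by pin tool with a single drug, or with a fixed anchor-drug dose together with five library-drug doses (not always all listed) in √10 steps. After 5 days, a combined fix-and-stain solution (final 0.05% Triton X-100, 1% formaldehyde, 1 ug/ml Hoechst) was added. Nuclei counted on 4× images gave relative viability as treated counts over vehicle counts, reported as the median of duplicate plates.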

[2] = compound: N#CC[C@H](C1CCCC1)n1cc(-c2ncnc3[nH]ccc23)cn1 [Ruxolitinib]
In short: (§1)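 Viability is treated-well nuclei as a fraction of vehicle-well nuclei, reported as the median across plates. Before counting, lung cancer cell lines were kept overnight at 37 °C in 1536-well plates, pinned with five √10-spaced library-drug doses on vehicle-anchored plates, and left 5 days without medium change, then fixed, permeabilised and Hoechst-stained in one step, imaged at 4× and counted by MetaXpress. A plate passed only if control CV was below 25% and at least one doubling occurred.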

[3] = compound: CS(=O)(=O)c1ccc(-c2cnc(N)c(C(=O)Nc3ccccc3)n2)cc1 [VE-821]
In short: as §1

[4] = compound: CS(=O)(=O)c1ccc(C(=O)Nc2ccc(Cl)c(-c3ccccn3)c2)c(Cl)c1 [Vismodegib]
In short: as §1

| Cell Line | relative viability ([1]; first compound 0.08 µM) | relative viability ([1]; first compound 0.253 µM) | relative viability ([1]; first compound 0.8 µM) | relative viability ([1]; first compound 2.53 µM) | relative viability ([1]; first compound 8 µM) | relative viability ([2]; 0.08 µM) | relative viability ([2]; 0.253 µM) | relative viability ([2]; 0.8 µM) | relative viability ([2]; 2.53 µM) | relative viability ([2]; 8 µM) | relative viability ([3]; 0.08 µM) | relative viability ([3]; 0.253 µM) | relative viability ([3]; 0.8 µM) | relative viability ([3]; 2.53 µM) | relative viability ([3]; 8 µM) | relative viability ([4]; 0.08 µM) | relative viability ([4]; 0.253 µM) | relative viability ([4]; 0.8 µM) | relative viability ([4]; 2.53 µM) | relative viability ([4]; 8 µM) |
| --- | --- | --- | --- | --- | --- | --- | --- | --- | --- | --- | --- | --- | --- | --- | --- | --- | --- | --- | --- | --- |
| SK-MES-1 | 1.03 | 0.847 | 0.776 | 0.954 | 0.866 | 1.04 | 0.967 | 1.02 | 0.846 | 0.725 | 1.03 | 0.955 | 0.905 | 0.933 | 0.809 | 0.964 | 0.997 | 1.01 | 0.986 | 1.04 |
| HCC-827 | 1.05 | 0.972 | 0.784 | 1.07 | 0.825 | – | 1.01 | 0.891 | 0.859 | 0.901 | 1.06 | 1.02 | 1.1 | 1.06 | 1.04 | 1.04 | 1.01 | 1.04 | 1.03 | 1.03 |
| NCI-H596 | 0.486 | 0.458 | 0.39 | 0.511 | 0.413 | 1.09 | 0.98 | 1.12 | 1.09 | 1.07 | 0.984 | 0.907 | 0.972 | 0.975 | 1 | 0.986 | 1.02 | 0.898 | 0.932 | 0.952 |
| COR-L23 | 0.787 | 0.714 | 0.746 | 0.837 | 0.525 | 1.07 | 0.995 | 1.09 | 0.981 | 0.785 | 1.12 | 0.953 | 1.15 | 1.11 | 0.866 | 0.981 | 0.933 | 1.03 | 1.02 | 1.05 |
| 201T | 1.11 | 1.03 | 0.878 | 1.09 | 0.85 | 1.05 | 1.1 | 1.18 | 1.19 | 1.1 | 1.03 | 0.94 | 0.937 | 1.01 | 0.703 | 0.983 | 0.942 | 0.977 | 0.964 | 0.968 |
| NCI-H322M | 0.728 | – | 0.763 | 0.881 | 0.612 | 0.934 | 0.962 | 1.04 | 1.27 | 1.36 | 0.96 | 0.912 | 0.96 | 0.864 | 0.371 | 0.912 | 0.896 | 0.932 | 0.868 | 0.88 |
| LU99A | 0.585 | 0.512 | 0.444 | 0.414 | 0.277 | 1.06 | 0.997 | 1.08 | 0.816 | 0.777 | 0.987 | 1.01 | 0.962 | 0.998 | 0.464 | 0.989 | 0.899 | 0.964 | 0.819 | 0.922 |

From the supplement of paper PMC10307832
